Experimental data reported in patent EP3827825A1, “USE OF 3, 4-DIARYLPYRAZOLES AS ANTIBACTERIAL AGENTS” (Wageningen Universiteit, priority 2019, dated 2021).
Values after ≈ are worked out from the molar mass of the structure shown. Like-named read-outs stand apart in the source and are kept apart here.

How the values were obtained:
S. aureus Newman = test: Minimal inhibitory concentration (MIC), double-dilution in broth, OD600; type: cell-based, Staphylococcus aureus Newman; settings: unit assumed
Summary of the method: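 Twofold broth dilution series of compound from a DMSO stock, against S. aureus Newman from a 1:100-diluted overnight culture. Plates were incubated for 24 hours, then read at OD600. The MIC is the lowest concentration showing no growth.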

S. suis = test: as above; type: cell-based, Streptococcus suis; settings: unit assumed
Summary of the method: (§1)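 Compounds from DMSO stock were twofold serially diluted in broth (starting 50 µg/mL) and inoculated with overnight bacterial culture; after 24 h, OD600 was read and the MIC taken as the lowest concentration without growth. M. marinum was tested in Middlebrook 7H9 broth, read after 3 days at 30 °C.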

P. multocida = test: as above; type: cell-based, Pasteurella multocida; settings: unit assumed
Summary of the method: as §1

M. marinum = test: Minimal inhibitory concentration (MIC), Middlebrook 7H9 broth, 3 days at 30 °C; type: cell-based, Mycobacterium marinum; settings: unit assumed
Summary of the method: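 MICs came from two-fold broth dilutions from 5 mg/mL DMSO stocks, with 100-fold-diluted overnight cultures incubated overnight/24 h; growth was read at OD600 and the MIC taken as the lowest concentration without growth. For M. marinum, Middlebrook 7H9 broth was used with 3 days at 30 °C.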

E. coli JW5503 = type: cell-based, Escherichia coli; settings: unit assumed
Summary of the method: as §1

E. faecium Van A = test: Minimal inhibitory concentration (MIC), double-dilution in broth, OD600; type: cell-based, Enterococcus faecium; settings: unit assumed
Summary of the method: as §1

HEK293 = test: Cell toxicity, Alamar blue assay, 24 hours exposure; type: cell-based; settings: for IC50: Homo sapiens
Summary of the method: (§2)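 Alamar blue (resazurin→resorufin) viability in NRK-52E and HEK293 cells after 24 h exposure to HKI compounds at 0.39–500 µg/mL in serum-free medium. Compounds were removed, dye added for 45 min, fluorescence read. Mostly single measurements.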

NRK-52E = test: as above; type: cell-based; settings: for IC50: Rattus norvegicus, read-out: IC50 NRK-52E (50 mg/mL stock)
Summary of the method: as §2

[1] = HEK293, read-out: IC50 HEK293 (5 mg/mL stock)
[2] = HEK293, read-out: IC50 HEK293 (50 mg/mL stock)

| SMILES | MIC S. aureus Newman (S. aureus Newman) | MIC S. suis (S. suis) | MIC P. multocida (P. multocida) | MIC M. marinum (M. marinum) | MIC E. coli JW5503 (E. coli JW5503) | MIC E. faecium Van A (E. faecium Van A) | IC50 (HEK293; [1]) | IC50 (NRK-52E) | IC50 HEK293 (50 mg/mL stock) (HEK293; HEK293, 50 mg/mL stock) | IC50 NRK-52E (50 mg/mL stock) (NRK-52E) | IC50 (HEK293; [2]) | IC50 HEK293 (5 mg/mL stock) (HEK293; HEK293, 5 mg/mL stock) |
| --- | --- | --- | --- | --- | --- | --- | --- | --- | --- | --- | --- | --- |
| COc1ccc(-c2c(-c3ccc(OCC(=O)NN)cc3O)n[nH]c2C(F)(F)F)cc1 [May-17, 2-[3-hydroxy-4-[4-(4-methoxyphenyl)-5-(trifluoromethyl)-1∼{H}-pyrazol-3-yl]phenoxy]acetohy drazide] | 25 µg/mL (≈ 59.2 µM) | 25 µg/mL (≈ 59.2 µM) | > 50 µg/mL | > 50 µg/mL | 6.25 µg/mL (≈ 14.8 µM) | 25 µg/mL (≈ 59.2 µM) | 15 µg/mL (≈ 35.5 µM) | 22 µg/mL (≈ 52.2 µM) | – | – | – | – |
| Oc1cc(OCc2ccc(Br)cc2)ccc1-c1n[nH]c(C(F)(F)F)c1-c1ccc(Cl)cc1 [May-18, 5-(4-bromobenzyl)oxy-2-[4-(4-chlorophenyl)-5-(trifluoromethyl)-1∼{H}-pyrazol-3-yl]phenol] | 0.78 µg/mL (≈ 1.49 µM) | 3.13 µg/mL (≈ 5.98 µM) | > 50 µg/mL | 6.25 µg/mL (≈ 11.9 µM) | > 50 µg/mL | 3.13 µg/mL (≈ 5.98 µM) | – | – | 4.7 | 4.568 | – | – |
| CCOc1ccc(-c2n[nH]c(C(F)(F)F)c2-c2ccccc2OC)c(O)c1 [May-20, 5-ethoxy-2-[4-(2-methoxyphenyl)-5-(trifluoromethyl)-1∼{H}-pyrazol-3-yl]phenol] | 6.25 µg/mL (≈ 16.5 µM) | 6.25 µg/mL (≈ 16.5 µM) | 50 µg/mL (≈ 132 µM) | 25 µg/mL (≈ 66.1 µM) | 3.13 µg/mL (≈ 8.27 µM) | 12.5 µg/mL (≈ 33 µM) | 2.1 µg/mL (≈ 5.55 µM) | ~17.6 µg/mL (≈ 46.5 µM) | – | – | – | – |
| COc1ccc(-c2[nH]nc(C(F)(F)F)c2-c2ccc(Br)cc2)c(O)c1 [May-23, 2-[4-(4-bromophenyl)-5-(trifluoromethyl)-1∼{H}-pyrazol-3-yl]-5-methoxy-phenol] | 3.13 µg/mL (≈ 7.58 µM) | 6.25 µg/mL (≈ 15.1 µM) | 50 µg/mL (≈ 121 µM) | > 50 µg/mL | 3.13 µg/mL (≈ 7.58 µM) | 3.13 µg/mL (≈ 7.58 µM) | 8.38 µg/mL (≈ 20.3 µM) | ~2.81 µg/mL (≈ 6.81 µM) | – | – | 9 µg/mL (≈ 21.8 µM) | – |
| Oc1cc(OCc2ccccc2)ccc1-c1[nH]nc(C(F)(F)F)c1-c1ccccc1 [May-24, 5-benzoxy-2-[4-phenyl-5-(trifluoromethyl)-1∼{H}-pyrazol-3-yl]phenol] | 1.56 µg/mL (≈ 3.8 µM) | 3.13 µg/mL (≈ 7.63 µM) | > 50 µg/mL | 25 µg/mL (≈ 60.9 µM) | 25 µg/mL (≈ 60.9 µM) | 1.56 µg/mL (≈ 3.8 µM) | – | ~3.86 µg/mL (≈ 9.41 µM) | – | – | 4.8 µg/mL (≈ 11.7 µM) | – |
| CCOc1ccc(-c2[nH]nc(C(F)(F)F)c2-c2ccc(Cl)cc2)c(O)c1 [May-27, 2-[4-(4-chlorophenyl)-5-(trifluoromethyl)-1∼{H}-pyrazol-3-yl]-5-ethoxy-phenol] | 3.13 µg/mL (≈ 8.18 µM) | 3.13 µg/mL (≈ 8.18 µM) | 25 µg/mL (≈ 65.3 µM) | 50 µg/mL (≈ 131 µM) | 3.13 µg/mL (≈ 8.18 µM) | 3.13 µg/mL (≈ 8.18 µM) | 10.8 µg/mL (≈ 28.3 µM) | 181 µg/mL (≈ 472 µM) | – | – | 118 µg/mL (≈ 309 µM) | – |
| CCOc1cc(O)c(-c2n[nH]c(C(F)(F)F)c2-c2ccccc2)cc1CC [Sep-2, 5-ethoxy-4-ethyl-2-[4-phenyl-5-(trifluoromethyl)-1∼{H}-pyrazol-3-yl]phenol] | 6.25 µg/mL (≈ 16.6 µM) | 25 µg/mL (≈ 66.4 µM) | > 50 µg/mL | > 50 µg/mL | 25 µg/mL (≈ 66.4 µM) | 25 µg/mL (≈ 66.4 µM) | 3.97 µg/mL (≈ 10.5 µM) | ~17.4 µg/mL (≈ 46.2 µM) | – | – | – | – |
| C=C(C)COc1ccc(-c2[nH]nc(C(F)(F)F)c2-c2ccccc2)c(O)c1 [Sep-9, 5-(2-methylallyloxy)-2-[4-phenyl-5-(trifluoromethyl)-1∼{H}-pyrazol-3-yl]phenol] | 6.25 µg/mL (≈ 16.7 µM) | 25 µg/mL (≈ 66.8 µM) | 50 µg/mL (≈ 134 µM) | > 50 µg/mL | 6.25 µg/mL (≈ 16.7 µM) | 0.78 µg/mL (≈ 2.08 µM) | 16.1 µg/mL (≈ 43.1 µM) | ~10.9 µg/mL (≈ 29 µM) | – | – | – | – |
| Oc1cc(OCc2ccc(Br)cc2)ccc1-c1n[nH]c(C(F)(F)F)c1-c1ccc(Cl)cc1 [Sep-13, 5-(4-bromobenzyl)oxy-2-[4-(4-chlorophenyl)-5-(trifluoromethyl)-1∼{H}-pyrazol-3-yl]phenol] | 1.56 µg/mL (≈ 2.98 µM) | 6.25 µg/mL (≈ 11.9 µM) | > 50 µg/mL | 25 µg/mL (≈ 47.7 µM) | > 50 µg/mL | 12.5 µg/mL (≈ 23.9 µM) | – | – | – | 10.89 | – | 16.51 |
| Oc1cc(OCc2ccccc2Cl)ccc1-c1n[nH]c(C(F)(F)F)c1-c1ccc(Cl)cc1 [Sep-25, 5-(2-chlorobenzyl)oxy-2-[4-(4-chlorophenyl)-5-(trifluoromethyl)-1∼{H}-pyrazol-3-yl]pheno] | 3.13 µg/mL (≈ 6.53 µM) | 12.5 µg/mL (≈ 26.1 µM) | > 50 µg/mL | 50 µg/mL (≈ 104 µM) | > 50 µg/mL | 12.5 µg/mL (≈ 26.1 µM) | 19.3 µg/mL (≈ 40.2 µM) | 17.3 µg/mL (≈ 36 µM) | – | – | 18.1 µg/mL (≈ 37.7 µM) | – |
| C=C(C)COc1ccc(-c2[nH]nc(C(F)(F)F)c2-c2ccc(Cl)cc2)c(O)c1 [Sep-29, 2-[4-(4-chlorophenyl)-5-(trifluoromethyl)-1∼{H}-pyrazol-3-yl]-5-(2-methylallyloxy)phenol] | 3.13 µg/mL (≈ 7.66 µM) | 12.5 µg/mL (≈ 30.6 µM) | > 50 µg/mL | > 50 µg/mL | 12.5 µg/mL (≈ 30.6 µM) | 6.25 µg/mL (≈ 15.3 µM) | 16.4 µg/mL (≈ 40.1 µM) | 19.9 µg/mL (≈ 48.7 µM) | – | – | – | – |
